# Assay: Planar scintigraphy of 111In-compounds in normal rats
# Format: in vivo
# Conditions: 1, 24 and 48 hours after ^111In-OMS or ^111In-OB121
# Description: FIG. 31 is planar scintigraphy of ^111In-Compounds ([…], iv, at 1-48 hours acquired 500,000, count) in normal rats.
# Pamidronate (PAM), Methyl diphosphonate (MDP) and OMS are bone-related agents and were used as control group in present invention. Scintigraphic images, captured by a gamma camera equipped with low-energy, parallel-hole collimator or micro-PET, were obtained in 0.5-2 hours. The selected images are shown in FIGS. 29 and 30, wherein FIG. 29 compares the planar images of 30, 60, and 120 min of normal rats which were taken ^99mTc-PAM, ^99mTc-MDP, ^99mTc-OMS, ^99mTc-OB141, ^99mTc-OB 121 and ^99mTc-DTPA-BP respectively. FIG. 30 compares the planar images of 20, 60, and 150 min of normal rats which were taken ^99mTc-MDP, ^99mTc-DTPA-AMDP, and ^99mTc-MAMA-AMDP respectively. Higher joint-to-muscle (J/M) or bone-to-muscle (B/M) ratios and the better quality of bone images were achieved. […] Besides, as tetraazacyclic groups are very lipophilic so that they may have potential applications in the treatment of osteoporosis. Thus, tetraazacyclic groups were labeled with In-111 for longer observation.
smiles,measurement,value
"O=P(O)(O)C(O)(CN1CCN(CC(O)(P(=O)(O)O)P(=O)(O)O)CCN(CC(O)(P(=O)(O)O)P(=O)(O)O)CCN(CC(O)(P(=O)(O)O)P(=O)(O)O)CC1)P(=O)(O)O [OB-121, 1,4,7,10-Tetraazacyclododecane-1,4,7,10-tetrakis(2-hydroxy-ethylenebisphosphonate)]",quality of planar images,better compound for getting high quality images
